Laboratory results reported in publication PMC8968952, “Modulation of ERCC1-XPF Heterodimerization Inhibition via Structural Modification of Small Molecule Inhibitor Side-Chains” (Frontiers in Oncology, 2022).

Legend:
ERCC1-XPF = molecular target: T1, ERCC1-XPF (Homo sapiens, UniProt Q92889); experiment: Steady state intrinsic fluorescence quenching binding assay; details: excitation 295 nm, emission 330 nm
T1 construct: the final purity of the full-length ERCC1-XPF heterodimer was determined to be ~35%; His6; made in house; host or cells: E. coli BL21(DE3)
T1 sequence (Q92889 1-916): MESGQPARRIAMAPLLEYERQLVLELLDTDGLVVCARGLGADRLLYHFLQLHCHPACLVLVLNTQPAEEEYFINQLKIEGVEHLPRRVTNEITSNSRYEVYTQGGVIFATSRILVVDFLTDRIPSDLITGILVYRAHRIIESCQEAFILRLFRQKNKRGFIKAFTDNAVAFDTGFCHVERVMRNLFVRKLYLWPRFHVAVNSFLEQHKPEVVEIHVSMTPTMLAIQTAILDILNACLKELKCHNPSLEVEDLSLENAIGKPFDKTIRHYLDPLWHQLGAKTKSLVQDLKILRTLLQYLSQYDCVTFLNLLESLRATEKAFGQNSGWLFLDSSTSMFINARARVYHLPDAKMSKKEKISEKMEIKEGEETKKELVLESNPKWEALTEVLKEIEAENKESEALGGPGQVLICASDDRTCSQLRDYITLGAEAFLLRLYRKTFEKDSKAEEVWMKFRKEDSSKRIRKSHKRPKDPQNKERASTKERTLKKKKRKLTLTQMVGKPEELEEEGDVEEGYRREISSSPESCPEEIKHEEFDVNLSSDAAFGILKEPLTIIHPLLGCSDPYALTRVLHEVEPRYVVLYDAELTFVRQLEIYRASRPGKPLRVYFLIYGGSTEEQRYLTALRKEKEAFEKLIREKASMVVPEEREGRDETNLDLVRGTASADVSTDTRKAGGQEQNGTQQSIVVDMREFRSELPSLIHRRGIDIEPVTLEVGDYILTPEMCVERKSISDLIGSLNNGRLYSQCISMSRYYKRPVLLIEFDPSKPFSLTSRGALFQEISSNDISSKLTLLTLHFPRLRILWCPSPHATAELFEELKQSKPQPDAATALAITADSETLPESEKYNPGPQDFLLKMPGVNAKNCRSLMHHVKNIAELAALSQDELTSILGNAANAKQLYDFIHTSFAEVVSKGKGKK
Experimental: Steady-state fluorescence spectra were measured at room temperature on a PerkinElmer LS-55 spectrofluorometer (Freemont, CA) as previously described ([70]). In studying the effects of inhibitors on protein fluorescence intensities, additions to protein samples were made from inhibitor stock solutions in DMSO, keeping the protein dilution below 3%. Data were plotted using GraphPad Prism version 5.04 software (San Diego, California)
Investigation of the binding of compound 6 to ERCC1-XPF was carried out via intrinsic fluorescence spectroscopy. The tryptophan residues of ERCC1-XPF were irradiated at 295 nm and the emission at 330 nm was monitored. Upon addition of compound 6 quenching of the intrinsic fluorescence of the protein was observed, consistent with ligand binding to a protein. The binding affinity was determined by plotting emission at 330 nm against increasing concentration of compound 6 ( Figure 3C ).

HCT-116 cells [1] = experiment: Clonogenic survival assay, cyclophosphamide treatment; type: cell-based, human
Experimental: […] The medium was then replaced with drug and inhibitor-free fresh medium. After incubation for another 9 days to allow for colony formation, the plates were stained with crystal violet, colonies were counted, and plating efficiency and surviving fraction were calculated. Data were plotted using GraphPad Prism version 5.04. software.

HCT-116 cells [2] = experiment: Cytotoxicity assay using colony forming assay; type: cell-based, human; details: 0.5 μM
Experimental: HCT-116 cells were incubated with media containing a non-toxic concentration of 6 or 10 ( Supplementary Figure 3 ) prior to exposure to the DNA damaging agents. […]
nitrocellulose. Proteins were visualized using ERCC1 (A73368-100, 1:1000; EpiGentek), XPF (LS- […]
primary antibodies followed by secondary anti-mouse or anti-rabbit secondary HRP-conjugated secondary antibodies. ECL chemiluminescent substrate (Promega) was used to detect the proteins.
Supplementary Figure 3. Cytotoxicity assay using colony forming assay
4 HCT-116 Derived XPF Knockout Cells
For CRISPR deletion of XPF from HCT-116 cells, the pSpCas9(BB)-2A-GFP (pX458) vector (Addgene plasmid # 48138) was used. The short guide sequence to target XPF exon one was: 5'- […]
- 3' and target XPF exon eight was: 5'-
-3'. All short guide sequences oligonucleotides were synthesized, annealed and cloned into pX458 vector and were confirmed by DNA sequencing at DNA laboratory, University of Calgary. The DNA plasmid (pX458 containing XPF short guide RNA sequence, 5 µg) was transfected into HCT-116 cells using Lipofectamine 2000 (Invitrogen) according to the manufacturer’s instructions. Forty-eight hours after transfection, cells were harvested and genomic DNA was isolated using the KAPA Express Extract Kit (Kapa Biosystems) according to the manufacturer’s instructions. […]

[3] = Distribution coefficient (log D at pH 7.4); type: physicochemical
Experimental: (§1) The ADME (absorption, distribution, metabolism, and excretion) profile of our lead compound 6 was determined by standard protocols carried out by WuXi AppTec (Shanghai) Co (https://www.wuxiapptec.com/). The following tests were conducted: distribution coefficient (log D at pH 7.4), aqueous solubility (Kinetic), metabolic stability in human liver microsomes and cryopreserved human hepatocytes, bidirectional permeability in Caco-2 cells, serum protein binding, and cytochrome P450 (CYP) inhibition (CYP1A2, CYP2C9, CYP2C19, CYP2D6, and CYP3A4-M).

[4] = Bidirectional permeability in Caco-2 cells; type: in vitro ADME; details: human
Experimental: as §1

CYP2C9 = CYP2C9 (Homo sapiens, UniProt P11712); experiment: Cytochrome P450 inhibition, CYP2C9; type: in vitro ADME
Experimental: as §1

CYP2D6 = CYP2D6 (Homo sapiens, UniProt P10635); experiment: Cytochrome P450 inhibition, CYP2D6; type: in vitro ADME
Experimental: as §1

Chain of CYP2C9 (P11712 whole entry): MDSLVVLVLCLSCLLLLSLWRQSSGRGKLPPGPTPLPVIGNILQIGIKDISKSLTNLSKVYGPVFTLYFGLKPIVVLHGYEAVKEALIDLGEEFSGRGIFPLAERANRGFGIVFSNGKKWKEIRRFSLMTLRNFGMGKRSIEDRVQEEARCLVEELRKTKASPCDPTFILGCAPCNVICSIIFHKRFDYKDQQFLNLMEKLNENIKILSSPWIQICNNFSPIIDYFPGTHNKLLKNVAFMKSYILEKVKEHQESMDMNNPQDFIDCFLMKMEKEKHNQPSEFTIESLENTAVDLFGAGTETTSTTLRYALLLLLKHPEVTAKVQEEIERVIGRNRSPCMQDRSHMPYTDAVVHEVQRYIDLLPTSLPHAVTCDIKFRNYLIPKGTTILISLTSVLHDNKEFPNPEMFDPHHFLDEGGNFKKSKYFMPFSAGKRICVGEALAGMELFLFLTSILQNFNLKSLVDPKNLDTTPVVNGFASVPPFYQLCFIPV
Chain of CYP2D6 (P10635 whole entry): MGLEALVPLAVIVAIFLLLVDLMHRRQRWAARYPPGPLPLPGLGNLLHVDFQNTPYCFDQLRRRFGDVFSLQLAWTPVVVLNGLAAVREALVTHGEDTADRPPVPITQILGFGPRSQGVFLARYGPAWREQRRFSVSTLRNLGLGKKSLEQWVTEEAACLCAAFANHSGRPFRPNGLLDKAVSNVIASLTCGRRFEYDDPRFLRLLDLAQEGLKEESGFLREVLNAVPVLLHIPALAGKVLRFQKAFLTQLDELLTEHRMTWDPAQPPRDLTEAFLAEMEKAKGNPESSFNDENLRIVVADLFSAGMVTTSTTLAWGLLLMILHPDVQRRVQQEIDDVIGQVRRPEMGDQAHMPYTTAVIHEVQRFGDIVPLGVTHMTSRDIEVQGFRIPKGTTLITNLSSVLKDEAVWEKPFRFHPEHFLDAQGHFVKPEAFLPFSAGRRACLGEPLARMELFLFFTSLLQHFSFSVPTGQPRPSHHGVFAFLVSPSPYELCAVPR

COc1ccc2nc3cc(Cl)ccc3c(Nc3ccc(O)c(CN4CCN(CCN(C(C)C)C(C)C)CC4)c3)c2c1 [Compound 6]
Kd (ERCC1-XPF): 140 ± 10 nM | sensitization to cyclophosphamide (in words) (HCT-116 cells [1]; 0.5 μM 6, 10 at 1.0 μM or 0.5 μM): sensitized the cells to cyclophosphamide | cell survival with cyclophosphamide (HCT-116 cells [1]; 0.5 μM compound, 50 μM cyclophosphamide): 62% | cell survival at 250 μM cyclophosphamide (in words) (HCT-116 cells [1]; 0.5 μM compound, 250 μM cyclophosphamide): almost no cells surviving | toxicity of the concentration used (in words) (HCT-116 cells [2]): non-toxic | logD [3]: 3.95 | efflux ratio [4]: 27.5 | CYP2C9 inhibition grade (in words) (CYP2C9): weak inhibitor | IC50 (CYP2C9): 33400 nM | CYP2D6 inhibition grade (in words) (CYP2D6): moderate inhibitor | IC50 (CYP2D6): 2920 nM
